Measurements as given in PubChem BioAssay (NCI).
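Grown in 96-well plates, cells were treated for 48 hours with each compound at five concentrations. Insufficient inhibition: endpoint recorded as highest concentration tested. Abbreviation: GI50, concentration required for 50% inhibition of growth. TGI marks complete inhibition of growth.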 *1 amine or outer side, *2 acyl side, *3 side chain or, on linkers, in order; H or OH if unused. Where a SMILES comes first, the peptide text is derived from it. Bridges are numbered along the chain shown (N, C = ends). [ ]: non-standard residue; d: D form. X59 = COc1c(N[*:1])cccc1C(=O)O[C@H](C(=O)[C@H](C)C(=O)[*:2])C(C)C; X58 = CC(C)C[C@H](C(=O)[*:2])C(C)C(=O)C1CCCN1[*:1]; NMeY = CN[C@@H](Cc1ccc(O)cc1)C(=O)O; Lac = C[C@H](O)C(=O)O

Tests used:
Test in all cases: growth of human tumour cells (NCI), 48 h
[1] = system: HL-60(TB) leukemia
[2] = system: HOP-92 NSCLC
[3] = system: HT29 colon
[4] = system: MOLT-4 leukemia
[5] = system: NCI-H226 lung
[6] = system: OVCAR-3 ovarian
[7] = system: OVCAR-8 ovarian
[8] = system: RPMI-8226 leukemia
[9] = system: SK-MEL-5 melanoma
[10] = system: SK-OV-3 ovarian
[11] = system: SW-620 colon
[12] = system: U251 CNS
[13] = system: MDA-N
[14] = system: T-47D breast

Structure (SMILES)	TGI [1] [µM]	TGI [2] [µM]	TGI [3] [µM]	TGI [4] [µM]	TGI [5] [µM]	TGI [6] [µM]	TGI [7] [µM]	TGI [8] [µM]	TGI [9] [µM]	TGI [10] [µM]	TGI [11] [µM]	TGI [12] [µM]	TGI [13] [µM]	TGI [14] [µM]	GI50 [1] [µM]	GI50 [6] [µM]	GI50 [9] [µM]	GI50 [12] [µM]
CC(=O)OC1CC2C(C)(C)OC(=O)CC(OC(C)=O)[C@]2(C)C2CCC3(C)C(=CCC3c3ccoc3)[C@]12C (stereo partly specified)	> 100	29.9	39.3	52	69.6	60	87.1	> 100	> 100	54.1	> 100	> 100	–	–	–	–	–	–
Oc1ccccc1-c1n[nH]c(-c2ccccc2O)n1	> 23.7	–	> 100	> 100	> 100	–	> 100	> 31.1	> 100	> 100	> 100	> 100	> 100	78.5	–	–	–	–
Cc1ccc(S(=O)(=O)OI(O)CC(F)(F)F)cc1	> 100	> 100	> 100	> 100	> 100	> 100	> 100	> 100	> 100	> 100	> 100	> 100	–	> 100	–	–	–	–
O=C(NN1C(=O)C(Cl)C1c1cccc(Cl)c1)c1ccccc1O (stereo unspecified)	> 100	–	> 100	> 100	> 100	> 100	> 100	–	> 100	> 100	–	> 100	–	–	–	–	–	–
CN(C(=O)c1cc2c(s1)sc1c(=O)n(C)c3ccccc3c12)c1ccccc1	–	> 100	> 100	> 100	> 100	> 100	> 100	–	> 100	> 100	–	> 100	> 100	> 100	–	–	–	–
COc1ccc(C[C@H]2C(=O)O[C@H](C)[C@H](NC(=O)[C@@H](CC(C)C)C(C)C(=O)C3CCCN3C(=O)[C@H](C)O)C(=O)Nc3cccc(c3OC)C(=O)O[C@@H](C(C)C)C(=O)[C@H](C)C(=O)N[C@@H](CC(C)C)C(=O)N3CCC[C@H]3C(=O)N2C)cc1 (stereo partly specified) (H-[Lac][X58]T[X59]LP[NMeY](Me); ester 3-C)	–	> 12.5	> 12.5	> 12.5	> 12.5	> 12.5	> 12.5	10.8	> 12.5	> 12.5	> 12.5	> 12.5	> 12.5	> 12.5	–	–	–	–
COCCNC1CCC(=O)c2[nH]c3ccccc3c21 (stereo unspecified)	> 100	> 100	> 100	> 100	> 100	> 100	> 100	> 100	> 100	–	> 100	> 100	> 100	–	–	–	–	–
O=c1cc(-c2ccc3ccccc3c2)[nH]c2ncccc12	4.55	75.6	> 100	> 100	> 100	> 100	> 100	60.7	16.5	> 100	> 100	> 100	–	> 100	1.8	8.25	3.46	4.35
COc1cccc(N2C(=O)C3c4[nH]c5ccc(C)cc5c4C4CCC(C)CC4C3C2=O)c1 (stereo unspecified)	25.3	> 100	> 100	–	> 100	> 100	> 100	> 100	> 100	> 100	> 100	> 100	> 100	–	–	–	–	–
CN(C)CCN=C1Nc2ccccc2C(=O)N2CSCC12 (stereo unspecified)	–	–	> 100	> 100	> 100	> 100	> 100	> 100	> 100	> 100	> 100	> 100	> 100	> 100	–	–	–	–
COc1ccc2c(c1)C1c3ccccc3CCN1CCC2 (stereo unspecified)	–	> 100	> 100	> 100	> 100	> 100	> 100	96.8	> 100	> 100	> 100	> 100	–	> 100	–	–	–	–
Cc1cc(C)nc(NS(=O)(=O)c2ccc(Nc3nnc(/C=C/c4c(O)ccc5ccccc45)c(=O)n3N)cc2)n1	66.8	> 100	> 100	> 100	–	56	87.2	> 100	–	> 100	> 100	–	81.6	51.5	–	–	–	–
Cc1ncc([N+](=O)[O-])n1CCNC(=O)Cn1ccnc1[N+](=O)[O-]	> 100	–	> 100	> 100	> 100	> 100	> 100	–	> 100	> 100	> 100	> 100	> 100	> 100	–	–	–	–
CC(C)(C)OC(=O)NC(Cc1ccc(OCc2ccccc2)cn1)C(=O)O (stereo unspecified)	> 100	> 100	> 100	–	> 100	> 100	> 100	> 100	> 100	–	> 100	> 100	> 100	–	–	–	–	–
C/C(CC(=O)Nc1ccccc1)=N\NC(N)=S	> 100	> 100	> 100	> 100	> 100	> 100	> 100	> 100	> 100	> 100	> 100	> 100	–	–	–	–	–	–
Cc1ccc(S(=O)(=O)NC(=O)NCC(N)=O)cc1	> 100	> 100	> 100	> 100	–	–	> 100	> 100	> 100	> 100	> 100	> 100	> 100	> 100	–	–	–	–
C=CCN(N=O)C(=O)N(CCCCC(NC(C)=O)C(=O)NCc1ccccc1)Cc1ccccc1 (stereo unspecified)	43.5	57.3	36.8	45.4	60.7	> 100	> 100	41.9	30	> 100	> 100	> 100	–	–	–	–	–	–
O=c1[nH]c2cc3[nH]c(=O)c(=O)[nH]c3cc2[nH]c1=O	> 100	–	> 100	> 100	> 100	> 100	> 100	> 100	> 100	> 100	> 100	> 100	–	–	–	–	–	–
